Results from BindingDB's records for patent US20240174647 (Neuron23, 2024).

Molecular target: Leucine-rich repeat serine/threonine-protein kinase 2 (Homo sapiens, UniProt Q5S007)
Assay: Biochemical Assay
Procedure: The protocol for basic TR-FRET LanthaScreen Tb Kinase Activity Assay inhibitor studies were as follows. LanthaScreen Kinase Activity Assays (ThermoFisher/USA) to evaluate inhibitors were performed by addition of 100 nL of test compound in corresponding DMSO dilutions/5 μL of kinase/fluorescein-ERM(LRRKtide) peptide mixture, 5 μL of ATP into 384 well small volume plates. After incubation for 120 minutes at room temperature, the detection reagents containing Tb-anti-pLRRKtide antibody were added to monitor phosphrylation level of peptide. Then, after 60 min minutes incubation at room temperature plates were read in Envision. Data analysis of emission ratios was according to LanthaScreen Tb Kinase Activity Assay protocol.Kinase and assay components were adjusted to final concentrations according to the kit protocol. For LRRK2: 2 nM wt human LRRK2, catalytic site, catalytic site (ThermoFisher/USA), 400 nM peptide, 38 μM ATP in 1× Kinase Buffer A.Basic protocol for TR-FRET LanthaScreen Tb Kinase Activity Assay inhibitor studies involved two steps:Enzymatic step: Addition of 100 nL of test compound in corresponding DMSO dilutions, 5 μL of kinase/substrate mixture, 5 μL of ATP into 384 well small volume plates. Incubation for 120 minutes at room temperature.Detection step: Addition of 10 μL EDTA & antibody, read plate after 60 minutes. […]

Sequence of Leucine-rich repeat serine/threonine-protein kinase 2 (Q5S007 whole entry): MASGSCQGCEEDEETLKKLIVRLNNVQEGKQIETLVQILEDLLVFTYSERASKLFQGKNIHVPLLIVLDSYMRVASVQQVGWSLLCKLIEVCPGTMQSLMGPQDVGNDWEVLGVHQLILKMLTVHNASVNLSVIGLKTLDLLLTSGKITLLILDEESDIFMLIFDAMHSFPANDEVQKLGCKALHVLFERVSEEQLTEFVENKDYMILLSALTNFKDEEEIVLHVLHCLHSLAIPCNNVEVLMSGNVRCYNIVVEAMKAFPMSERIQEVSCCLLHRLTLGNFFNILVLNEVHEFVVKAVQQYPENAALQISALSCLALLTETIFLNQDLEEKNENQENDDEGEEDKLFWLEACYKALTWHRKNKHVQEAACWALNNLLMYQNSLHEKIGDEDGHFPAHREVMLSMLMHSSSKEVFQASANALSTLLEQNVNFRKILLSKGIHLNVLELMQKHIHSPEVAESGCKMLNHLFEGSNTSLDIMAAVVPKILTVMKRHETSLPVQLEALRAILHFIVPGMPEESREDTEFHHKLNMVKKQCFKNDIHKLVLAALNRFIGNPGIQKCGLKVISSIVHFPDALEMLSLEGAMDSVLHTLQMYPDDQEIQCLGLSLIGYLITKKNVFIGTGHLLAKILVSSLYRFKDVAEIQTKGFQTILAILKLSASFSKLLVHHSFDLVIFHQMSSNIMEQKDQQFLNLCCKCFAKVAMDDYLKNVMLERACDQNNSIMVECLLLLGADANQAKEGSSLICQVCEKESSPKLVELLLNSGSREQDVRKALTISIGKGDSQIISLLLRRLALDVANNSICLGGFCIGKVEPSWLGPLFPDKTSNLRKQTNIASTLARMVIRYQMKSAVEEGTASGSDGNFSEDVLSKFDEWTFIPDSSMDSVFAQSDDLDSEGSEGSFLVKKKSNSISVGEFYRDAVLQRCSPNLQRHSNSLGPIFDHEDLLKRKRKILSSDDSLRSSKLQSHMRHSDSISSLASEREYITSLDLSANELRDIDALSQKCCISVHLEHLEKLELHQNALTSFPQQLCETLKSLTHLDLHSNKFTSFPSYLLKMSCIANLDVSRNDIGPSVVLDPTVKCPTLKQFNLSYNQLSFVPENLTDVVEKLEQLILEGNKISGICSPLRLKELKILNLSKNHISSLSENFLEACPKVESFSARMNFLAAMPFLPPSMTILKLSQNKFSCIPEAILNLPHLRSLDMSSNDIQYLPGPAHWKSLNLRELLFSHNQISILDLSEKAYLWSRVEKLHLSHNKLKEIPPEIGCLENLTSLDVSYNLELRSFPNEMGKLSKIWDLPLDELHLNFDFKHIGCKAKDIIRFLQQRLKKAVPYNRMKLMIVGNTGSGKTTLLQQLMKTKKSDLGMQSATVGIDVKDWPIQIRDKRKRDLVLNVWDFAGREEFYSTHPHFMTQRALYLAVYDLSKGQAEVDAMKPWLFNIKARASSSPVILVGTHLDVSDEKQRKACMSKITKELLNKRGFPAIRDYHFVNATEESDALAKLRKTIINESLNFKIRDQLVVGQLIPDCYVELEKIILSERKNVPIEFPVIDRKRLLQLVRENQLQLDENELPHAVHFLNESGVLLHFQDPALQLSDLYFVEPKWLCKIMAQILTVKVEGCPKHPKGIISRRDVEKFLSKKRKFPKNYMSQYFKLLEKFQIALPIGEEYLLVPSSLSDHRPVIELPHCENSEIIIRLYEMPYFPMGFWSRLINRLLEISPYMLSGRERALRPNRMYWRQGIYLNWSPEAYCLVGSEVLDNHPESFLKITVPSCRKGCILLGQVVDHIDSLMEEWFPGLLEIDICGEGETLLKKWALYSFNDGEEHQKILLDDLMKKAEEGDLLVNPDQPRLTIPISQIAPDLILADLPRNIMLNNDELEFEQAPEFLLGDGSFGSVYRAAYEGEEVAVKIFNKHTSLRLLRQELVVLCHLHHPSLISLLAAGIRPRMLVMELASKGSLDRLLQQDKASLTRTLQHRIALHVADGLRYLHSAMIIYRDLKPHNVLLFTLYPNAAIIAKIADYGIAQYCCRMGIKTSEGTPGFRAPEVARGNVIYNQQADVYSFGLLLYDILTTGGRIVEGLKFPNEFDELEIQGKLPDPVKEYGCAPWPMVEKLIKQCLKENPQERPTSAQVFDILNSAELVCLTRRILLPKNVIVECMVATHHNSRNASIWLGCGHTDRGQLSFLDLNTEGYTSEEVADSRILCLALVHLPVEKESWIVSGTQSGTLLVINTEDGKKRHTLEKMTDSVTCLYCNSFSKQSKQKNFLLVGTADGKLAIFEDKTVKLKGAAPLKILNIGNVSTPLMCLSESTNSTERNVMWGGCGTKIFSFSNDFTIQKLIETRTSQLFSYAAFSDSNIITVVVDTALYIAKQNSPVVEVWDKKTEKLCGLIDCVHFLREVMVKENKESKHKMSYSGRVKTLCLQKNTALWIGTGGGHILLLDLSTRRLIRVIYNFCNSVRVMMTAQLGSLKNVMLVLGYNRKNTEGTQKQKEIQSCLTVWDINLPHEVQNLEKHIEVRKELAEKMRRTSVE

`CNc1nc(Nc2ccc(F)c3[nH]ncc23)ncc1C(F)(F)F` [US20240174647, Example 27] was tested, and the IC50 was less than 50 nM.
